According to patent US8609610B2, “Inhibitors of the trypsin-like site of the proteasome and methods of use thereof” (Trustees of Dartmouth College, priority 2011, dated 2013):

Key:
[1] = test system: trypsin-like site of 26S proteasomes; assay: Inhibition of purified 26S proteasomes, substrate Ac-RLR-amc; type: biochemical, rabbit
β2 proteasome subunit = biological target: T1, β2 proteasome subunit (Homo sapiens, UniProt P49720+Q99436); assay: Competition assay in HEK-293T cell lysate with MV151; type: biochemical; conditions: HEK-293T lysate, 5 μM
T1 construct: Whole cell lysates of HEK-293T or EL-4 cells were made by sonication; endogenous in cells; host or cells: HEK-293T

β5 proteasome subunit = biological target: T2, β5 proteasome subunit (Homo sapiens, UniProt P20618+P28074); assay: as above; type: biochemical; conditions: HEK-293T lysate, 5 μM
T2 construct: Whole cell lysates of HEK-293T or EL-4 cells were made by sonication; endogenous in cells; host or cells: HEK-293T
Experimental: Whole cell lysates of HEK-293T or EL-4 cells were made by sonication in 3 volumes of lysis buffer containing 50 mM Tris pH 7.5, 1 mM DTT, 5 mM MgCl2, 250 mM sucrose, 2 mM ATP, 0.025% digitonin. Protein concentration was determined by the Bradford assay. Cell lysates (13.5 μg total protein for HEK lysates and 9 μg total protein for EL-4 lysates) were exposed to the inhibitors for 1 hour at 37° C. prior to incubation with MV151 (0.5 μM) or BODIPY-TMR-epoxomicin (0.5 μM) for an additional 1 hour at 37° C. Reaction mixtures were boiled with Laemmli's buffer containing (3-mercaptoethanol for 5 minutes before being resolved by 12.5% SDS-PAGE. In-gel detection of residual proteasome activity was performed in the wet gel slabs directly on the TYPHOON Variable Mode Imager (Amersham Biosciences) using the Cy3/Tamra settings (λex 532 nm, λem 560 nm) to detect MV151, BODIPY-TMR-epoxomicin and Cy2/Fam settings (λex 488 nm, λem 520 nm) to detect compounds 39 and 59.
The inhibition potential of the inhibitors for each of the catalytically active subunits was assessed in competition assays employing extracts of human embryonic kidney cells (HEK-293T) and mouse lymphoma cells (EL-4) in combination with the fluorescent broad spectrum proteasome probe MV151 (Verdoes, et al. (2006) Chem. Biol. 13:1217-1226). Competitive inhibition of a proteasome active site is reflected by the disappearance of the corresponding band on a gel.

[2] = biological target: β2 (trypsin-like site) of proteasome in HEK-293T cells (Homo sapiens, UniProt P49720+Q99436); assay: Competition assay in living HEK-293T cells with activity-based probe; type: cell-based
Experimental: Proteasome inhibition in MM cells was measured with luminogenic substrates using PROTEASOMEGLO assay (Promega). […] An aliquot of culture was pelleted and medium was removed and replaced with PBS. The resulting cell suspension was mixed with luminogenic substrates in the manufacturer-provided lysis/assay buffer. After 3 minutes mixing on an orbital shaker, the plate was incubated in the dark for additional 17 minutes, followed by the measurements of the luminescence, performed in triplicate for each substrate/data point. Data were analyzed as for purified proteasomes. […] Cells (1×10^6 per well of a 6-well plate) were incubated with the inhibitors for 4 hours at 37° C. and this was followed by a 2 hour incubation with 5 μM BODIPY-TMR-epoxomicin. Subsequently, the medium was removed and the cells were washed with PBS and harvested. […] The supernatant was collected and the protein concentration was determined by the Bradford assay, and used to normalize gel loading. The samples were analysed by SDS-PAGE and fluorescent densitometry as described for competition experiment in cell lysates. IC50 values were calculated from three independent experiments using […] PRISM software.
Human embryonic kidney cells (some 1×10^6) were cultured in 6-well plates in DMEM containing 10% fetal calf serum, 10 units/mL penicillin and 10 μg/mL streptomycin in a 7% CO2 humidified incubator at 37° C. overnight. Part of the medium was taken and to this was added the appropriate inhibitor in DMSO (1 μL of a 1,000× stock solution), after which the medium was added to the cells. The cells were incubated with the inhibitors for 4 hours at 37° C. and this was followed by addition of MV151 (1 μL of a 5 mM stock solution in DMSO) and incubation for 2 hours at 37° C. Next, the medium was removed and the cells were washed with PBS and harvested. […] The supernatant was collected and the protein concentration was determined by the Bradford assay. All samples were normalized to the same protein concentration with lysis buffer.

cathepsin D = biological target: T3, cathepsin D (Homo sapiens, UniProt P07339); assay: Cathepsin D activity assay (SENSOLYTE 520); type: cell-based
T3 construct: endogenous in cells
Experimental: (§1) Cathepsin B, H, L, S activity was measured with pan-cathepsin substrate Z-FR-amc (Kirschke & Wiederanders (1994) Methods Enzymol. 244:500-11) in extracts of cytosol-less cells at pH 6.0 (Screen, et al. (2010) supra). Cathepsin D activity was measured in cytosol-less extracts using SENSOLYTE 520 Cathepsin D Fluorometric Assay Kit (AnaSpec). Combined cathepsin D and E activity was measured using the same kit, in which cathepsin D substrate provided with the kit was replaced with 7-Methoxycoumarin-[…](Dnp)-X′-NH2 (SEQ ID NO:10; where “X′” stand for D-Arg) internally quenched fluorogenic substrate of cathepsin D and E. In this case, pH 3.0 assay buffer used for cell extraction. All activity observed using both procedures was inhibited by more than 98% by specific inhibitor of aspartic proteases pepstatin A.

[3] = test system: proteasome catalytic subunits in NCI-H929 cells; assay: Isolation and identification of polypeptides modified by az-NC-002; type: cell-based; conditions: BioP ligation, streptavidin isolation, mass-spectrometry
Experimental: Cells were treated with the activity-based site probe overnight and lysed with 50 mM Tris-HCl, 10% glycerol, 5 mM MgCl2, 0.5 mM EDTA, 0.5% CHAPS, 1 mM ATP. […] After on-beads trypsin digestion, samples were analyzed by LC-MS/MS (Florea, et al. (2010) Chem. Biol. 17:795-801). IRDYE 800 CW-conjugated streptavidin was purchased from Rockland, hsc71 antibodies from Abcam (Cat #19136), and β2 antibodies from Abgent (Cat #AP2914b).
To further confirm that NC-002, NC-012 and NC-022 were specific for the trypsin-like sites and that the biological activity was not due to off-target effects, az-NC-002 was synthesized as an NC-002-derived, activity-based probe. […] One major az-NC-002-specific streptavidin-reactive band was detected. […] A weaker band of slightly lower mobility, matching the mobility of β2i band, was also detected. […] A number of endogenously biotinylated proteins in the 70-100 kDa region were also detected and can serve as a loading control.
To further confirm that the probe covalently modified β2 and β2i subunits, proteasome was denatured after BioP modification, biotinylated polypeptides were isolated on streptavidin beads, and bound polypeptides were identified by mass-spectrometry after on-beads trypsin digestion. […] No peptides derived from other catalytic subunits were detected.

[4] = biological target: T4, trypsin-like sites (β2) of proteasome in MM cells (Homo sapiens, UniProt Q99436); assay: PROTEASOMEGLO assay of proteasome inhibition in MM cells; type: cell-based; conditions: NCI-H929 cells treated overnight
T4 construct: endogenous in cells; host or cells: NCI-H929, RPMI-8226 and other MM cell lines
T4 sequence (Q99436 44-277): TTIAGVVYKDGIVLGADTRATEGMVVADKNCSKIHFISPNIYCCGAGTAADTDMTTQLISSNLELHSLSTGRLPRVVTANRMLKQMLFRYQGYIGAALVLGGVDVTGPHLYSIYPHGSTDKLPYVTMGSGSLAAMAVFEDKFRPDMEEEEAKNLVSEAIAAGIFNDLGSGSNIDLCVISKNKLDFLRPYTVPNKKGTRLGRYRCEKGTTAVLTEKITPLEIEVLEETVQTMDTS

[5] = biological target: T5, trypsin-like site of 26S proteasomes (Oryctolagus cuniculus, UniProt G1SWK8); assay: Inhibition of purified 26S proteasomes, substrate Ac-RLR-amc; type: biochemical, rabbit; conditions: 26S proteasomes from rabbit muscles
T5 construct: IC50 for sites in 26S proteasomes: Tr-L; other: purified 26S proteasomes; other: 26S proteasomes from rabbit muscles
T5 sequence (G1SWK8 1-271): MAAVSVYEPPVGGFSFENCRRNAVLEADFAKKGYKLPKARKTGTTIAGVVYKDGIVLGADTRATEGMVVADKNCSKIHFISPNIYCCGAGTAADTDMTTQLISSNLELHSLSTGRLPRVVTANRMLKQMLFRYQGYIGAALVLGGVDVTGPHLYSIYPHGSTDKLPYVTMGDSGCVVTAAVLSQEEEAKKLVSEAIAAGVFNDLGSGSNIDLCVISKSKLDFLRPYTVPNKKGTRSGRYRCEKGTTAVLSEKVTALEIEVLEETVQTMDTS

β2 and β2i sites = assay: MV-151 label-competition in extracts of RPMI-8226 MM cells; type: biochemical; conditions: extracts of RPMI-8226 cells, MV-151 probe
Source text: Multiple myeloma cells express constitutive proteasomes and immunoproteasomes, and substrates used for the measurement of activity were cleaved by both. To determine whether there were any differences in inhibition of constitutive proteasomes or immunoproteasomes by NC-002, NC-012, and NC-022, the fluorescent activity-based probe MV-151 (Verdoes, et al. (2006) Chem. Biol. 13:1217-1226) was used in a label-competition experiment. Extracts of RPMI-8226 MM cells (which express more immunoproteasomes than NCI-H929 cells) were treated first with the NC inhibitors and then with the MV-151 probe. This was followed by fractionation on SDS-PAGE to separate proteasome subunits and imaging to reveal those subunits labeled by the probe (i.e., unmodified by the inhibitors).

[6] = biological target: T6, chymotrypsin-like site of 26S proteasomes (Oryctolagus cuniculus, UniProt G1T4Q9); assay: Inhibition of purified 26S proteasomes, substrate Suc-LLVY-amc; type: biochemical, rabbit; conditions: >>30 no inhibition at 30 μM, >30 inhibition between 10 and 50% at 30 μM, read-out: IC50 for sites in 26S proteasomes: Chym-L
T6 sequence (G1T4Q9 1-263): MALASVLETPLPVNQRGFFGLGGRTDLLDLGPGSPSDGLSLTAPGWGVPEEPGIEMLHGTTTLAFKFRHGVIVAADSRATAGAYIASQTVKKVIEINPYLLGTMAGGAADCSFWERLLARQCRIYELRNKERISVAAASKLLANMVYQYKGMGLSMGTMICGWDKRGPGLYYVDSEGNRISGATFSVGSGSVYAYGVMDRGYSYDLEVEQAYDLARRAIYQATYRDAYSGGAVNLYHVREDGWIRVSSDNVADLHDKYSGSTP
Experimental: (§2) 26S proteasomes were purified from rabbit muscle using known methods (Screen, et al. (2010) supra). […] NOVEX Bis-Tris gels (12%, Invitrogen) with MOPS running buffer were used for electrophoretic separation of catalytic subunits modified by active-site probes. Inhibition of active sites inside cells was assayed using luminescent PROTEASOMEGLO assay (Promega; Moravec, et al. (2009) Anal. Biochem. 387:294-302) according to known methods (Britton, et al. (2009) supra).

[7] = biological target: caspase-like site of 26S proteasomes (Oryctolagus cuniculus, UniProt A0A5F9DQW2); assay: Inhibition of purified 26S proteasomes, substrate Ac-nLPnLD-amc; type: biochemical, rabbit; conditions: >>30 no inhibition at 30 μM, >30 inhibition between 10 and 50% at 30 μM, read-out: IC50 for sites in 26S proteasomes: Casp-L
Experimental: as §2

[8] = test system: Caspase-3/7 activity in NCI-H929 and MM1.R cell lines; assay: APO-ONE caspase-3/7 assay; type: cell-based; conditions: combination of NC-001 and NC-002
Experimental: RPMI-8226 and NCI-H929 cells were cultured in RPMI-1640 supplemented with 10% fetal bovine serum, penicillin, streptomycin, and plasmocin in 5% CO2 humidified incubator. HEK-293T cells were cultured in DMEM containing 10% fetal calf serum, 10 units/mL penicillin, and 10 μg/mL streptomycin in a 7% CO2 humidified incubator. Viability of multiple myeloma cells was measured with ALAMAR BLUE mitochondrial dye conversion assay. Viability of peripheral blood mononuclear cells (PBMNCs) was measured using CELL TITER-GLO luminescent cell viability assay (Promega), which is based on quantification of ATP present in the cells. Caspase-3/7 activity was measured using APO-ONE 3/7 homogeneous assay (Promega).

Cathepsin B, H, L, S = assay: Cathepsin activity with pan-cathepsin substrate Z-FR-amc; type: cell-based
Experimental: as §1

caspase-like site of 26S proteasomes, sequence (A0A5F9DQW2 1-212): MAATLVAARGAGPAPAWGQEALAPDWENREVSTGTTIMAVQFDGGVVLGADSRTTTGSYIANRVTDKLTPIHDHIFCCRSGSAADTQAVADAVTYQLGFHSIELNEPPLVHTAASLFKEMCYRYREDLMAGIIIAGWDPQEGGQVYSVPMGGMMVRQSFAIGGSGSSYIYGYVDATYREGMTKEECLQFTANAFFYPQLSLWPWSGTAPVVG
T3 sequence (P07339 65-412): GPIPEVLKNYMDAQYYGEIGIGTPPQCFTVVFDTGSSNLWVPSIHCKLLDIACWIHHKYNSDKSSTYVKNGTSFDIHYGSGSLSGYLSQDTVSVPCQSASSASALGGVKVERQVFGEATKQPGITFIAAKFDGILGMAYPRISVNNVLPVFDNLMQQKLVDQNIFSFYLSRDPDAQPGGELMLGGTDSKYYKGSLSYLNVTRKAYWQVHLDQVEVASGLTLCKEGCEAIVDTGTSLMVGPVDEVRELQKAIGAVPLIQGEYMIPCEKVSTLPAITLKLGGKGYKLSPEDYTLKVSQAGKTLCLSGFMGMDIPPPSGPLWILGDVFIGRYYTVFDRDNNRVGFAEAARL

## BODIPY-triazole-Phe-Leu-Leu-Phe (4-CH2NH2)-VS [Compound 39]
[1]
  inhibition of trypsin- and chymotrypsin-like activities: equipotently inhibited trypsin- and chymotrypsin-like activities
  specificity after attachment of BODIPY-FL dye: complete loss of specificity
β2 proteasome subunit
  inhibition of β2 in cell lysate: all β2 and β5 proteasomal activity was inhibited
β5 proteasome subunit
  inhibition of β5 in cell lysate: all β2 and β5 proteasomal activity was inhibited
[2]; 5 μM
  inhibition of β2 and β5 in living cells: seemed not to be competed away at all
[2]; 50 μM
  inhibition of proteasome activity in living cells: not all proteasome activity was silenced

## CC(C)C[C@H](NC(=O)CN=[N+]=[N-])C(=O)N[C@@H](CC(C)C)C(=O)N[C@@H](CCCNC(=N)N)C(=O)[C@@]1(C)CO1 [az-NC-002, Az-Gly-Leu-Leu-Arg-ek]
Cathepsin D
  inhibition of cathepsin D: no significant inhibition
[3]
  subunits modified by the probe: trypsin-like site-specific activity-based probe

## CC(=O)N[C@@H](CC(C)C)C(=O)N[C@@H](CC(C)C)C(=O)N[C@@H](CCCNC(=N)N)C(=O)[C@@]1(C)CO1 [NC-002, Ac-Leu-Leu-Arg-ek]
[4]
  inhibition of trypsin-like activity in live cells: sub-micromolar concentrations
[1]; rabbit 26S proteasomes
  IC50 (Chym-L)/IC50 (Tr-L): >30
[5]
  proteasome inhibitory potential on purified 26S proteasomes: potent and specific inhibitors of the trypsin-like sites
β2 and β2i sites
  inhibition of constitutive (β2) versus immunoproteasome (β2i) trypsin-like sites: equipotent inhibitors of the trypsin-like sites of constitutive and immunoproteasomes
[6]
  IC50: > 30 µM
[7]
  IC50: > 30 µM
[8]
  caspase activity (apoptosis): did not cause any significant increase in caspase activity
Cathepsin B, H, L, S
  inhibition of lysosomal cysteine proteases: did not inhibit
